Structures can show the parent of a compound that is named as a salt.
What was measured:
serotonin transporter = target: T1, serotonin transporter (Rattus norvegicus, UniProt P31652); experiment: 3H-paroxetine binding to the serotonin transporter, rat frontal cortical membranes; details: values printed without parentheses, 3H-paroxetine 0.1 nM, read-out: rb-5-HH-T, Ki
T1 construct: frontal cortical membranes prepared from male S.D. rats; from tissue; host or cells: rat frontal cortex membranes (male Sprague-Dawley)
T1 sequence (P31652 whole entry): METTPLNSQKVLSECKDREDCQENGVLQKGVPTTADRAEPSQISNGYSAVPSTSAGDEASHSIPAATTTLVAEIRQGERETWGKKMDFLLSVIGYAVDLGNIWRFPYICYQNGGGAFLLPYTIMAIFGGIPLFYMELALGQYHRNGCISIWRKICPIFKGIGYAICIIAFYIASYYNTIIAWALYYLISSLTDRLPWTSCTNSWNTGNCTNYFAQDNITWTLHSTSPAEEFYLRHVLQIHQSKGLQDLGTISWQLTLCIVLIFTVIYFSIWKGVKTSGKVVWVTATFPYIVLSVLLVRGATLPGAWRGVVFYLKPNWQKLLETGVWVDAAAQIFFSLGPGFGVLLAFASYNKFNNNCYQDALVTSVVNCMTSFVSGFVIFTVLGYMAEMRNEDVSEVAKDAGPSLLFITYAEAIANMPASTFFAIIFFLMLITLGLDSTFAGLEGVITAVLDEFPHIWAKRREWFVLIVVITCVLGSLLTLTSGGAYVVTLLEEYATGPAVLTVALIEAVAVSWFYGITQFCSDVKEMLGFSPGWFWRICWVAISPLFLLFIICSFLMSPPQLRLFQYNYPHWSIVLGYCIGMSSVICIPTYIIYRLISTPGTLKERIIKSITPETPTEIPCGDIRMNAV
In short: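 Male Sprague-Dawley rat frontal cortical membranes incubated with 0.1 nM ³H-paroxetine for 60 min at 25 °C, test compound at one to eight concentrations; 10 μM fluoxetine defined specific binding. Filtration separated bound ligand, counted by scintillation. IC50 from nonlinear regression, converted to Ki by Cheng–Prusoff.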

h-5-HT-T = h-5-HT-T (Homo sapiens, UniProt P31645); experiment: h-5-HT-T IC50 (Table 1, no method described)
Chain of h-5-HT-T (P31645 whole entry): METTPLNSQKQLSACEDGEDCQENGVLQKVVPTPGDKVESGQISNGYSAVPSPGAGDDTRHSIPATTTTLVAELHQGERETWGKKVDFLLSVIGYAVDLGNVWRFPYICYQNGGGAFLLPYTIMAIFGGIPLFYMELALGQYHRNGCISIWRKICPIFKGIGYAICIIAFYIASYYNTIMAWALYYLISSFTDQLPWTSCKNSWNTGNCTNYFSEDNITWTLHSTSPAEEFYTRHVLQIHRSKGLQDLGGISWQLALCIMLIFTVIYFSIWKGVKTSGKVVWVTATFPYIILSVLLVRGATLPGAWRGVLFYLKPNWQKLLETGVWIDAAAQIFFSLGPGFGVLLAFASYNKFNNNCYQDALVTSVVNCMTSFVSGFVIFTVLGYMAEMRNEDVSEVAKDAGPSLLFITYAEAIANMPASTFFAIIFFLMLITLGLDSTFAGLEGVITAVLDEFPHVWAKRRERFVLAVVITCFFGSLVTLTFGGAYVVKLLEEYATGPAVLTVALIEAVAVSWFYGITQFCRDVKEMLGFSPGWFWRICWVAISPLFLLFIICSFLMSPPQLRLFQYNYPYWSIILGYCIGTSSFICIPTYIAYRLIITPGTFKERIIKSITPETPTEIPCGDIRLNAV

Human 5-HT1A Receptor [1] = target: T2, Human 5-HT1A Receptor (Homo sapiens, UniProt P08908); experiment: 8-OH-DPAT binding, human 5-HT1A receptor cell line; details: stably transfected CHO cells, 8-OH-DPAT ligand 1.5 nM; read-out: h5-HT1A Affinity, Ki
T2 construct: expressed in transfected cells; host or cells: CHO cells
T2 sequence (P08908 1-422): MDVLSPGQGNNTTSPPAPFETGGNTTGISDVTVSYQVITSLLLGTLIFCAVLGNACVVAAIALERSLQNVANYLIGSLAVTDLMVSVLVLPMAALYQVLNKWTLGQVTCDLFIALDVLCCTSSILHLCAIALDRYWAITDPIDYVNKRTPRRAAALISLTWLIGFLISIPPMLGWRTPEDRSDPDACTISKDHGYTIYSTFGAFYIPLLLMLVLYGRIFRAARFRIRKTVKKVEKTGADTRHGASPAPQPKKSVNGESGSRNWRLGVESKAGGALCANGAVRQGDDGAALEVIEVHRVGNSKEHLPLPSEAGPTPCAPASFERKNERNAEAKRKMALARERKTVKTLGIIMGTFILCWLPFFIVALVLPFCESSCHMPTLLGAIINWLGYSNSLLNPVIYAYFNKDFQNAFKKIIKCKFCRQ
In short: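 Membranes from CHO cells stably expressing human 5-HT1A, incubated 30 min at room temperature in 50 mM Tris pH 7.5 with 1.5 nM radioligand (8-OH-DPAT). Non-specific binding defined with […]; filtration on PEI-soaked GF/B filters. Single-point inhibition at […], then Ki for actives.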

Human 5-HT1A Receptor [2] = target: T2, Human 5-HT1A Receptor; experiment: cAMP RIA in human 5-HT1A receptor cell line; type: cell-based; details: forskolin stimulated cAMP, CHO cells; for EC50: superscript a, read-out: c-AMP, (EC50)^a; for Emax: superscript c, read-out: c-AMP, (Emax)^c
In short: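 Stably transfected CHO cells preincubated in Krebs with 500 uM IBMX, then given forskolin (1 uM final) and test compound (0.1 and 1 uM initial screen) for 10 min at 37° C; cAMP measured by RIA as % inhibition. Antagonist mode: 6 concentrations preincubated 20 min before agonist plus forskolin; IC50 for reversal.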

[3] = target: T3, cloned human 5-HT1A receptors (Homo sapiens, UniProt P08908); experiment: 35S-GTPγS binding assay; type: biochemical; details: for IC50: superscript b, reversal of 8-OH-DPAT effect; for Imax (maximum inhibitory effect): superscript d
T3 construct: expressed in transfected cells
T3 sequence (P08908 1-422): T2 sequence (P08908 1-422)
Description: The ^35S-GTPγS binding assay similar to that used by Lazareno and Birdsall (Br. J. Pharmacol., 1993, 109: 1120) was used to determine the test compound's ability to affect the binding of ^35S-GTPγS to membranes containing cloned human 5-HT1A receptors. Agonists produce an increase in binding whereas antagonists produce no increase but rather reverse the effects of the standard agonist 8-OH-DPAT. The test compound's maximum stimulatory effect is represented as the Emax, while its potency is defined by the EC50. The test compound's maximum inhibitory effect is represented as the Imax, while its potency is defined by the IC50. […] was used to determine maximum agonist or antagonist response.

SMILES	Ki (serotonin transporter)	IC50 (h-5-HT-T)	Ki (Human 5-HT1A Receptor [1])	EC50 (Human 5-HT1A Receptor [2])	Emax (Human 5-HT1A Receptor [2])	IC50 [3]	Imax (maximum inhibitory effect) [3]	melting point
Cc1ccc2c3c(ccc2n1)OC[C@H](CNC1CCc2c([nH]c4ccccc24)C1)O3.Cl.Cl (mixture of isomers) [Example 43, N-{[(2S)-8-methyl-2,3-dihydro[1,4]dioxino[2,3-f]quinolin-2-yl]methyl}-2,3,4,9-tetrahydro-1H-carbazol-2-amine dihydrochloride]	45.1 nM	19.3 ± 2.51 nM	432 nM	233 nM	61%	197 nM	98.5%	117 to 118 °C (dec.)
Cc1ccc2c3c(ccc2n1)OC[C@H](CN(CC1CC1)C[C@@H]1CCc2[nH]c4ccc(F)cc4c2C1)O3 [Example 55, (Cyclopropylmethyl){[(3R)-6-fluoro-2,3,4,9-tetrahydro-1H-carbazol-3-yl]methyl}{[(2S)-8-methyl-2,3-dihydro[1,4]dioxino[2,3-f]quinolin-2-yl]methyl}amine dihydrochloride dihydrate]	110 nM	8.5 ± 0.18 nM	850 nM	211 nM	67%	1130 nM	74%	–
Cc1ccc2c3c(ccc2n1)OC[C@H](CN(C[C@@H]1CCc2[nH]c4ccc(F)cc4c2C1)C1CCC1)O3 [Example 56, N-{[(3R)-6-Fluoro-2,3,4,9-tetrahydro-1H-carbazol-3-yl]methyl}-N-{[(2S)-8-methyl-2,3-dihydro[1,4]dioxino[2,3-f]quinolin-2-yl]methyl}cyclobutanamine dihydrochloride dihydrate]	127 nM	18.1 ± 0.39 nM	1730 nM	154 nM	69%	3100 nM	–	–

Source: patent US7297704B2, “Cycloalkyfused indole, benzothiophene, benzofuran and idene derivatives” (Wyeth, priority 2005, dated 2007)
